Type in all cases: in vivo
The subject of test [1] is Culex pipiens pallens. The test can be described thus: Larvicidal test on Culex pipiens pallens, eight days (Test Example 7). As to conditions: 192 h; last-instar larvae of Culex pipiens pallens; 3.5 ppm in water; eight days later; read-out: death rate. As to the method: 20 last-instar larvae of Culex pipiens pallens were released into a liquid to which 0.7 ml of the above test drug solution was added to 100 ml of ion-exchanged water (a concentration of the active ingredient of 3.5 ppm). Eight days later, the life and death of the Culex pipiens pallens was examined, and the death rate was calculated. The death rate was calculated by the following equation.
Death rate (%)=(Number of dead insects/Number of tested insects)×100

Test [2] concerns Culex pipiens pallens. The test can be described thus: Knockdown spray test on adult Culex pipiens pallens (Test Example 4). As to conditions: topical, 0.25 h, active ingredient 0.1% w/v, 0.5 ml sprayed, within 15 minutes, read-out: knockdown rate of the test insects within 15 minutes. An outline of the steps: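 Knockdown counts were taken 2, 5 and 15 min after spraying and expressed as percent of the 10 adults tested. For the spray, 0.5 ml of solution was applied by spray gun (0.4 kg/cm^2) from 30 cm above a gauze-covered cup in a test chamber; the cup was taken out right after spraying.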

Test [3] relates to Blattella germanica. Nature of the test: Knockdown spray test on Blattella germanica, 2.0% w/v oil formulation (Test Example 1). The following applies: topical, 0.25 h, active ingredient 2.0% w/v, 1.5 ml sprayed, within 15 minutes, read-out: knockdown rate of the test insects within 15 minutes. An outline of the steps:
(§1)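 Ten German cockroaches (5 males, 5 females) in a mesh-bottomed, butter-walled container were sprayed with 1.5 ml test solution from 60 cm at 0.42 kg/cm^2 inside a chamber.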

Test [4] has as its system Spodoptera litura. Nature of the test: Foliar spray test on Spodoptera litura on cabbage (Test Example 11). As to conditions: 96 h, fourth instar larvae of Spodoptera litura on cabbage, 500 ppm spray 20 ml/cup, after 4 days, read-out: controlling value. As to the method: On the other hand, cabbage was planted in a polyethylene cup, and grown until the third-fourth true leaf was spread. The test spray solution was sprayed to the cabbage at a ratio of 20 ml/cup. After the drug solution sprayed orn the cabbage was dried, 10 fourth instar larvae of Spodoptera litura were allowed to parasitize the cabbage. After 4 days, the number of surviving Spodoptera litura on the cabbage leaves was examined, and the controlling value was calculated according to the following equation. Controlling value (%)={1−(Cb×Tai)/([…])}×100 In the equation, the symbols represent as follows. Cb: the number of insects in a non-treated section before treatment Cai: the number of insects in a non-treated section on observation Tb: the number of insects in a treated section before treatment Tai: the number of insects in a treated section on observation

Test [5] deals with Musca domestica. Nature of the test: Knockdown spray test on adult Musca domestica (Test Example 3). As to conditions: topical, 0.25 h, active ingredient 2.0% w/v, 0.5 ml sprayed, within 15 minutes, read-out: knockdown rate of the test insects within 15 minutes. As to the method: Ten adult Musca domestica (five males and five females) were released in a polyethylene cup (bottom diameter: 10.6 cm), and the cup was covered with a 16-mesh nylon gauze. The polyethylene cup was placed on the bottom of a test chamber (bottom: 46 cm×46 cm, height: 70 cm). From a height of 30 cm above the upper surface of the polyethylene cup, 0.5 ml of the test drug solution was sprayed using a spray gun (a spraying pressure of 0.9 kg/cm^2). Immediately after spraying, the cup was taken out from the test chamber, and after 2 minutes, 5 minutes and 15 minutes, the number of knocked-down insects was counted to obtain a knockdown rate. The knockdown rate was calculated by the following equation.
Knockdown Rate (%)=(Number of Knocked-down Insects/Number of Tested Insects)×100

Test [6] concerns Plutella xylostella. Nature of the test: Foliar spray test on Plutella xylostella on cabbage (Test Example 10). As to conditions: 120 h, third instar larvae of Plutella xylostella on cabbage, 500 ppm spray 20 ml/cup, after five days, read-out: controlling value. The essentials:
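Cabbage at the third–fourth true-leaf stage sprayed with test solution at 20 ml/cup, dried, then infested with 10 third-instar larvae. Insects counted after five days; controlling value (%) calculated from treated and non-treated counts before treatment and at observation.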

Test [7] concerns Musca domestica. The test can be described thus: Filter paper/sucrose bait death rate test on Musca domestica (Test Example 5). As to conditions: female imagoes of Musca domestica, 0.7 ml on filter paper, after 24 hours. An outline of the steps: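 Ten female imagoes were confined in a sealed cup over a filter paper treated with 0.7 ml of test solution and 30 mg sucrose bait. Mortality was scored at 24 h and expressed as percent of tested insects killed.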

The subject of test [8] is Blattella germanica. Nature of the test: Knockdown spray test on Blattella germanica, 0.1% w/v oil formulation (Test Example 2). The following applies: topical, 0.25 h, active ingredient 0.1% w/v, 1.5 ml sprayed, within 15 minutes, read-out: knockdown rate of the test insects within 15 minutes. The essentials:
as §1

Structures are written as SMILES. Some results are limits rather than exact numbers.

As for `O=C(NCC1CCOC1)c1cc(COCc2ccc3ccccc3c2)on1` (stereo not shown) [(20), N-(tetrahydrofuran-3-ylmethyl)-5-(2-naphthylmethoxymethyl)isoxazole-3-carboxamide], in test [1], the pest or weed control at 3.5 ppm is no less than 90%. The pest or weed control at 0.1 % strength in test [2] was no less than 80%. Further, the pest or weed control at 2 % strength in test [3] and in test [5] was no less than 80% each time. For the same compound, in test [4], the pest or weed control at 500 ppm was no less than 80%.
Regarding `O=C(NCC1CCOCC1)c1cc(COCc2cccc(Cl)c2)on1` [(69), N-(tetrahydropyran-4-ylmethyl)-5-(3-chlorobenzyloxymethyl)isoxazole-3-carboxamide], the pest or weed control at 0.1 % strength in test [2] and in test [8] was no less than 80% throughout. In addition, the results for the pest or weed control at 500 ppm in test [6], in test [7] and in test [4] were no less than 90%, no less than 90% and no less than 80%, respectively.
Consider `O=C(NCC1CCOC1)c1cc(COCc2cccc(Br)c2)on1` (stereo not shown) [(76), N-(tetrahydrofuran-3-ylmethyl)-5-[(3-bromobenzyl)oxymethyl]isoxazole-3-carboxamide], for which the pest or weed control at 3.5 ppm in test [1] was no less than 90%. Also, the pest or weed control at 0.1 % strength in test [2] and in test [8] was no less than 80% throughout. In addition, the results for the pest or weed control at 500 ppm in test [6], in test [7] and in test [4] were no less than 90%, no less than 90% and no less than 80%, respectively.
With `O=C(NCC1CCOCC1)c1cc(COCc2cccc(Br)c2)on1` [(77), N-(tetrahydropyran-4-ylmethyl)-5-(3-bromobenzyloxymethyl)isoxazole-3-carboxamide], in test [1], the pest or weed control at 3.5 ppm was no less than 90%. Besides, the pest or weed control at 0.1 % strength in test [2] and in test [8] was no less than 80% in each case. Moreover, in test [4], the pest or weed control at 500 ppm was no less than 80%.
As to `O=C(NCC1CCOCC1)c1cc(COCc2cccc(OC(F)(F)F)c2)on1` [(79)], the pest or weed control at 0.1 % strength in test [2] and in test [8] was no less than 80% in each case. Moreover, the pest or weed control at 500 ppm in test [6] is no less than 90%; in test [7], no less than 90%; in test [4], no less than 80%.
On to `O=C(NCC1CCOC1)c1cc(COCc2cc3ccccc3s2)on1` (stereo not shown) [(112), N-(tetrahydrofuran-3-ylmethyl)-5-(benzothiophen-2-ylmethoxymethyl)isoxazole-3-carboxamide], for which the pest or weed control at 0.1 % strength in test [2] and in test [8] was no less than 80% each time. In test [4], the pest or weed control at 500 ppm is no less than 80%.
For `O=C(NCC1CCOC1)c1cc(COc2cccc(Br)c2)on1` (stereo not shown) [(196), N-(tetrahydrofuran-3-ylmethyl)-5-(3-bromophenoxymethyl)isoxazole-3-carboxamide], the pest or weed control at 0.1 % strength in test [2] and in test [8] was no less than 80% throughout. For the same compound, the pest or weed control at 500 ppm in test [4] was no less than 80%.
For the compound `O=C(NCC1CCOCC1)c1cc(COc2cccc(Br)c2)on1` [(197), N-(tetrahydropyran-4-ylmethyl)-5-(3-bromophenoxymethyl)isoxazole-3-carboxamide], in test [2], the pest or weed control at 0.1 % strength is no less than 80%. Also, the pest or weed control at 500 ppm in test [4] was no less than 80%.
Take `O=C(NCC1CCOC1)c1cc(COc2cccc(C(F)(F)F)c2)on1` (stereo not shown) [(198), N-(tetrahydrofuran-3-ylmethyl)-5-(3-trifluoromethylphenoxymethyl)isoxazole-3-carboxamide]: in test [1], the pest or weed control at 3.5 ppm is no less than 90%. Besides, the pest or weed control at 0.1 % strength in test [2] and in test [8] was no less than 80% each time. The pest or weed control at 500 ppm in test [4] is no less than 80%.
For the compound `O=C(NCC1CCOC1)c1cc(COCc2ccc3ccccc3c2F)on1` (stereo not shown) [(258), N-(tetrahydrofuran-3-ylmethyl)-5-(1-fluoro-2-naphthylmethoxymethyl)isoxazole-3-carboxamide], the pest or weed control at 3.5 ppm in test [1] was no less than 90%. Further, the pest or weed control at 0.1 % strength in test [2] and in test [8] was no less than 80% each time. The pest or weed control at 500 ppm is no less than 90% in test [6] and no less than 80% in test [4].
In the case of `O=C(NCC1CCOC1)c1cc(COCc2ccc(Cl)cc2F)on1` (stereo not shown) [(260), N-(tetrahydrofuran-3-ylmethyl)-5-(4-chloro-2-fluorobenzyloxymethyl)isoxazole-3-carboxamide], the pest or weed control at 3.5 ppm in test [1] is no less than 90%. Also, the pest or weed control at 0.1 % strength in test [2] and in test [8] was no less than 80% in each case. Besides, the figures for the pest or weed control at 500 ppm in test [7] and in test [4] were no less than 90% and no less than 80%, respectively.
In the case of `O=C(NCC1CCOC1)c1cc(COCc2ccc(Br)c(F)c2)on1` (stereo not shown) [(272), N-(tetrahydrofuran-3-ylmethyl)-5-(4-bromo-3-fluorobenzyloxymethyl)isoxazole-3-carboxamide], in test [2], the pest or weed control at 0.1 % strength is no less than 80%. The pest or weed control at 500 ppm was no less than 90% in test [6] and no less than 80% in test [4].
`O=C(NCC1CCOC1)c1cc(Cc2ccc(F)c(F)c2)on1` (stereo not shown) [(306), N-(tetrahydrofuran-3-ylmethyl)-5-(3,4-difluorobenzyl)isoxazole-3-carboxamide]: the pest or weed control at 0.1 % strength in test [2] and in test [8] was no less than 80% each time. Also, the pest or weed control at 500 ppm was no less than 90% in test [6], no less than 90% in test [7] and no less than 80% in test [4].
Take `O=C(NCC1CCOC1)c1cc(Cc2ccc(OC(F)(F)F)cc2)on1` (stereo not shown) [(315), N-(tetrahydrofuran-3-ylmethyl)-5-(4-trifluoromethoxybenzyl) isoxazole-3-carboxamide]: the pest or weed control at 3.5 ppm in test [1] was no less than 90%. The pest or weed control at 0.1 % strength in test [2] is no less than 80%. In addition, the values for the pest or weed control at 500 ppm in test [7] and in test [4] were no less than 90% and no less than 80%, respectively.
`O=C(NCC1CCOC1)c1cc(Cc2cccc(F)c2)on1` (stereo not shown) [(318), N-(tetrahydrofuran-3-ylmethyl)-5-(3-fluorobenzyl)isoxazole-3-carboxamide]: the pest or weed control at 0.1 % strength in test [2] and in test [8] was no less than 80% in each case. For the same compound, the pest or weed control at 500 ppm in test [6] is no less than 90%; in test [4] it was no less than 80%.
`O=C(NCC1CCOC1)c1cc(Cc2cccc(Cl)c2)on1` (stereo not shown) [(321), N-(tetrahydrofuran-3-ylmethyl)-5-(3-chlorobenzyl)isoxazole-3-carboxamide]: the pest or weed control at 0.1 % strength in test [2] and in test [8] was no less than 80% throughout. The results for the pest or weed control at 500 ppm in test [7] and in test [4] were no less than 90% and no less than 80%, respectively.
For the compound `O=C(NCC1CCOC1)c1cc(Cc2ccc(Cl)c(Cl)c2)on1` (stereo not shown) [(325), N-(tetrahydrofuran-3-ylmethyl)-5-(3,4-dichlorobenzyl)isoxazole-3-carboxamide], the pest or weed control at 0.1 % strength in test [2] and in test [8] was no less than 80% each time. The pest or weed control at 500 ppm in test [7] was no less than 90%; in test [4], no less than 80%.
With `CC1(CNC(=O)c2cc(CCCc3ccc4ccccc4c3)on2)COC1` [(332), N-(3-methyloxetan-3-ylmethyl)-5-[3-(2-naphthyl)propyl]isoxazole-3-carboxamide], in test [1], the pest or weed control at 3.5 ppm was no less than 90%. Moreover, the pest or weed control at 0.1 % strength in test [2] and in test [8] was no less than 80% each time. The pest or weed control at 2 % strength in test [3] and in test [5] was no less than 80% in each case.

The record behind these values is patent US20150344466A1 (SUMITOMO CHEMICAL COMPANY, LIMITED, priority 2013, published 2015).
